Data as given in US7825118B2, “Inhibitors of bruton's tyrosine kinase” (Pharmacyclics, Inc., priority 2006, dated 2010).
Like-named read-outs stand apart in the source and are kept apart here.

Experiments:
[1] = tested on: DHL-6; assay: Cytotoxicity DHL-6; type: cell-based; conditions: Lymphoma
[2] = tested on: DOHH2; assay: Cytotoxicity DOHH2; type: cell-based; conditions: for GI50: Homo sapiens, DOHH-2, Lymphoma
[3] = tested on: DLCL2; assay: Cytotoxicity DLCL2; type: cell-based; conditions: Lymphoma
[4] = tested on: Mino; assay: Cytotoxicity Mino; type: cell-based; conditions: Homo sapiens, Lymphoma
[5] = tested on: Raji; assay: Cytotoxicity Raji; type: cell-based; conditions: Homo sapiens, Lymphoma
[6] = tested on: CRL-8062; assay: Cytotoxicity CRL-8062; type: cell-based; conditions: Myeloma
[7] = tested on: A549; assay: Cytotoxicity A549; type: cell-based; conditions: Homo sapiens, Lung
[8] = tested on: NCI-H460; assay: Cytotoxicity NCI-H460; type: cell-based; conditions: Homo sapiens, Lung
[9] = tested on: BT-549; assay: Cytotoxicity BT-549; type: cell-based; conditions: Homo sapiens, Breast
[10] = tested on: SK-BR3; assay: Cytotoxicity SK-BR3; type: cell-based; conditions: Homo sapiens, SK-BR-3; Breast
[11] = tested on: MDA-MB-361; assay: Cytotoxicity MDA-MB-361; type: cell-based; conditions: Homo sapiens, Breast
[12] = tested on: MDA-MB-468; assay: Cytotoxicity MDA-MB-468; type: cell-based; conditions: Homo sapiens, Breast
[13] = tested on: MDA-MB-231; assay: Cytotoxicity MDA-MB-231; type: cell-based; conditions: Homo sapiens, Breast
[14] = tested on: MDA-MB-453; assay: Cytotoxicity MDA-MB-453; type: cell-based; conditions: Homo sapiens, Breast
[15] = tested on: pERK in DOHH2 cells; assay: Basal pERK levels in unstimulated DOHH2 cells; type: cell-based; conditions: Homo sapiens, DOHH-2, read-out: decrease of pERK levels IC50
Description: (§1) To identify biomarkers that correlate with response to Compound 4, phosphorylation events in the BCR signal transduction pathway were investigated. […].
. However, when we examined basal phosphorylation levels, we found higher basal phosphorylation in DOHH2 compared to Ramos, with phospho-ERK in particular indicating higher levels of basal or tonic signaling in DOHH2. […]

[16] = tested on: Btk expressing B cell lymphoma cell lines; assay: Panel of nine Btk expressing B cell lymphoma cell lines; type: cell-based
[17] = tested on: Egr-1; assay: Expression of ERK transcriptional target Egr-1; type: cell-based; conditions: 1 uM
[18] = tested on: Ramos; assay: Sensitivity of Ramos cell line; type: cell-based, human
Description: as §1

[19] = biological target: Btk (Homo sapiens, UniProt Q06187); assay: Btk acellular kinase assay (TR-FRET); type: biochemical
Chain of Btk (Q06187 whole entry): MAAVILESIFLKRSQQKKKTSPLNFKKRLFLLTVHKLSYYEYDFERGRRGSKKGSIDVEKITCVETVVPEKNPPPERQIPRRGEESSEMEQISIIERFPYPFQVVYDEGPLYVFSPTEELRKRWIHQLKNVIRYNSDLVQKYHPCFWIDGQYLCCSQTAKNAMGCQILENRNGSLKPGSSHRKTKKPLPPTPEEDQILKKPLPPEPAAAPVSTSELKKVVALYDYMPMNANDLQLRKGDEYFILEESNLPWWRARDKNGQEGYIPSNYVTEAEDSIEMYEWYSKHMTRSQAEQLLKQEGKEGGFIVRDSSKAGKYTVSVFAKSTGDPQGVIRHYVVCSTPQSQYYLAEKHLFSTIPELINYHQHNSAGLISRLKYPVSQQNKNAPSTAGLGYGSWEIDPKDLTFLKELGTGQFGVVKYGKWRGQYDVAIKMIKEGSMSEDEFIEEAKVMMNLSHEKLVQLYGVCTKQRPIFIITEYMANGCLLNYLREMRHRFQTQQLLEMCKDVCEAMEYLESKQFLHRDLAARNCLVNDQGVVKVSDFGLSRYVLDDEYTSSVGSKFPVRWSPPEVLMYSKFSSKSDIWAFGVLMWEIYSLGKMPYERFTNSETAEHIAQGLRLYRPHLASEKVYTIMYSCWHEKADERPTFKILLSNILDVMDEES

[20] = biological target: JAK3 (Homo sapiens, UniProt P52333); assay: Panel of kinases: JAK3; type: biochemical; conditions: Cys: Y
Chain of JAK3 (P52333 whole entry): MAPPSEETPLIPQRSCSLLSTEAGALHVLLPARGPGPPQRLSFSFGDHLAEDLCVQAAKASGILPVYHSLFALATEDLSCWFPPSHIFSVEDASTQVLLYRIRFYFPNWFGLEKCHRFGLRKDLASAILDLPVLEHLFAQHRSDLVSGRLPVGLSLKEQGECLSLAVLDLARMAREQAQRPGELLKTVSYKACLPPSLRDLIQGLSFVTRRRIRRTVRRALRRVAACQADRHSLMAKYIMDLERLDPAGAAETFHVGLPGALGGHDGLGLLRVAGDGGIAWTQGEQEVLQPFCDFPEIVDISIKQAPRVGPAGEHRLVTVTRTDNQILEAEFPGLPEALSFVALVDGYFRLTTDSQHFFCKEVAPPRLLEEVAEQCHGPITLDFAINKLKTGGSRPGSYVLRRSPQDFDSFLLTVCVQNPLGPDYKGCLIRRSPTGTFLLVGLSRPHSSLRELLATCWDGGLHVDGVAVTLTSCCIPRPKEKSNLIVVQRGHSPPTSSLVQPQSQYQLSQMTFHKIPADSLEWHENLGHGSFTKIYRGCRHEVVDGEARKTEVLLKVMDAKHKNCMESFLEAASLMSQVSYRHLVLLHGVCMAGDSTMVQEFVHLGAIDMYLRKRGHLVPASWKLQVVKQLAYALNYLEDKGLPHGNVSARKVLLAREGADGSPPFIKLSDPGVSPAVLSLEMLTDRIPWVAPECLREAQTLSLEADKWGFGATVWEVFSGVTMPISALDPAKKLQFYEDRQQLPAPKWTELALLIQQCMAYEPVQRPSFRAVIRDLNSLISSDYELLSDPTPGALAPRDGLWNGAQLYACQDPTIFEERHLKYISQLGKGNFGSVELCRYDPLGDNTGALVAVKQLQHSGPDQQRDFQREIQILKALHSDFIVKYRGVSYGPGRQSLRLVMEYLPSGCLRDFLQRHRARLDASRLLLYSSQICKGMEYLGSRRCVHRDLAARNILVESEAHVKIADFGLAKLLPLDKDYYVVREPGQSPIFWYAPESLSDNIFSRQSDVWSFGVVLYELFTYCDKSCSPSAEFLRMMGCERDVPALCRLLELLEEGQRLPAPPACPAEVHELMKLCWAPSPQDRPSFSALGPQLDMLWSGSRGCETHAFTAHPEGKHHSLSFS

[21] = biological target: BLK (Homo sapiens, UniProt P51451); assay: Panel of kinases: BLK; type: biochemical; conditions: Cys: Y
Chain of BLK (P51451 whole entry): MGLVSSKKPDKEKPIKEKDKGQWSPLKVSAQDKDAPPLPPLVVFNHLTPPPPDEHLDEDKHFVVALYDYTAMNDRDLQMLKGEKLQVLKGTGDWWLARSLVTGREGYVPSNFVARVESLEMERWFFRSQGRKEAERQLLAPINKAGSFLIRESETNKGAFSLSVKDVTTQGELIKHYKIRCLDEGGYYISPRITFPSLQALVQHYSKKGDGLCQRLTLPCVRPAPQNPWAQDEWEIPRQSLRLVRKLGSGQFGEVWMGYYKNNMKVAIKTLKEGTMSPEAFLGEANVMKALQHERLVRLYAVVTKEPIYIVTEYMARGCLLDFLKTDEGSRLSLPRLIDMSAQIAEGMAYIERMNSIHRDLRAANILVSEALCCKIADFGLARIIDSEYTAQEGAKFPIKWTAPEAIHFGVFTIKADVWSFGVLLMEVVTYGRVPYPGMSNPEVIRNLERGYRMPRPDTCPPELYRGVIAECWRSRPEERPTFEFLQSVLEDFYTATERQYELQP

[22] = biological target: ITK (Homo sapiens, UniProt Q08881); assay: Panel of kinases: ITK; type: biochemical; conditions: Cys: Y
Chain of ITK (Q08881 whole entry): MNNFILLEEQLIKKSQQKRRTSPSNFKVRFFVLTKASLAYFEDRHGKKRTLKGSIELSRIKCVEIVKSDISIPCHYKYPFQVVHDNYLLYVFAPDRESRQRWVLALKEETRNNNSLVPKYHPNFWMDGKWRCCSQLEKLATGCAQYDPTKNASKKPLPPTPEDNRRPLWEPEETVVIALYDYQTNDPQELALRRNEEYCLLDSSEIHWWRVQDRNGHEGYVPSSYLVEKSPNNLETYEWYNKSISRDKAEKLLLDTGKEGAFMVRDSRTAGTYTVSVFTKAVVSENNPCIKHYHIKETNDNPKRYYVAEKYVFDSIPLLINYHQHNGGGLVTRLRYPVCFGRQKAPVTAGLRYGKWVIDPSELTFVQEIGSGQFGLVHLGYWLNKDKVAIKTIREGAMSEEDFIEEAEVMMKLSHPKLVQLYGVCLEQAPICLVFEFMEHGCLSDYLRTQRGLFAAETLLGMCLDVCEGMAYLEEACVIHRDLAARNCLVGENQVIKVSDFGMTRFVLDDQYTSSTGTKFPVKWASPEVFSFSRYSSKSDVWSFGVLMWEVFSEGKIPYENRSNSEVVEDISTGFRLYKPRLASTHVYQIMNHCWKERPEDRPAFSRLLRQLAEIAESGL

[23] = tested on: DHL-6 cells; assay: Growth of DHL-6 cells (Alamar Blue, FIG. 3); type: cell-based; conditions: 3E4 cells/well, complete media, 0.1% DMSO
[24] = acellular TR-FRET kinase assay, ATP at Km, read-out: Btk IC50

With `C=CC(=O)N1CCCC(n2nc(-c3ccc(Oc4ccccc4)cc3)c3c(N)ncnc32)C1` (centres unmarked) [Compound 4, 1-(3-(4-amino-3-(4-phenoxyphenyl)-1H-pyrazolo[3,4-d]pyrimidin-1-yl)piperidin-1-yl)prop-2-en-1-one] the GI50 [1] was 0.75 µM, the “sensitivity of cell line DOHH2” value [2] was “sensitive” and the GI50 [2] was 0.77 µM. For the same molecule, the GI50 [3] was 1.3 µM, the GI50 [4] was 1.9 µM and the GI50 [5] was over 10 µM. It also gave a GI50 [6] of over 10 µM, a GI50 [7] of over 10 µM and a GI50 [8] of over 10 µM. The GI50 [9] was over 10 µM, the GI50 [10] was 0.44 µM and the GI50 [11] was over 10 µM. For the same molecule, the GI50 [12] was over 10 µM, the GI50 [13] was over 10 µM and the GI50 [14] was under 0.001 µM. The IC50 [15] was under 0.01 µM, the GI50 ([16]; B-cell, 5 of seven lines with high basal pERK, read-out: GI50 of sensitive cell lines) was under 1.3 µM and the “response of cell lines with low pERK levels” value ([16]; two cell lines with low pERK levels) was “resistant”. The “time within which Egr-1 expression is reduced” value [17] was at most 1 h and the “sensitivity of cell line Ramos” value [18] was “resistant”.

For `C/C=C/C(=O)N1CCCC(n2nc(-c3ccc(Oc4ccccc4)cc3)c3c(N)ncnc32)C1` (centres unmarked) [Compound 5, (E)-1-(3-(4-amino-3-(4-phenoxyphenyl)-1H-pyrazolo[3,4-d]pyrimidin-1-yl)piperidin-1-yl)but-2-en-1-one], the “fold less potent than 4” value ([19]; Btk potency relative to compound 4) was 28 fold and the IC50 [19, 24] was 0.02 µM.

`C#CC(=O)N1CCCC(n2nc(-c3ccc(Oc4ccccc4)cc3)c3c(N)ncnc32)C1` (centres unmarked) [Compound 8, 1-(3-(4-amino-3-(4-phenoxyphenyl)-1H-pyrazolo[3,4-d]pyrimidin-1-yl)piperidin-1-yl)prop-2-yn-1-one] gave an IC50 [19] of 0.00072 µM.

`C=CC(=O)N1CCC(n2nc(-c3ccc(Oc4ccccc4)cc3)c3c(N)ncnc32)CC1` [Compound 9, 1-(4-(4-amino-3-(4-phenoxyphenyl)-1H-pyrazolo[3,4-d]pyrimidin-1-yl)piperidin-1-yl)prop-2-en-1-one] gave an IC50 [19, 24] of 0.0036 µM.

Work on `C=CC(=O)N[C@H]1CC[C@@H](n2nc(-c3ccc(Oc4ccccc4)cc3)c3c(N)ncnc32)CC1` [Compound 10, N-((1s,4s)-4-(4-amino-3-(4-phenoxyphenyl)-1H-pyrazolo[3,4-d]pyrimidin-1-yl)cyclohexyl)acrylamide] yielded an IC50 [20] of 8.28 µM, an IC50 [21] of 0.00017 µM and an IC50 [22] of 0.91 µM. For the same molecule, the GI50 [1] was 0.009 µM, the GI50 [2] was 0.011 µM and the GI50 [3] was 4.82 µM. The GI50 [4] was 0.12 µM, the GI50 [5] was over 10 µM and the GI50 [6] was over 10 µM. For the same molecule, the GI50 [7] was 3.13 µM, the GI50 [8] was over 10 µM and the GI50 [9] was 2.79 µM. The GI50 [10] was 0.24 µM, the GI50 [11] was over 10 µM and the GI50 [12] was over 10 µM. For the same molecule, the GI50 [13] was over 10 µM and the GI50 [14] was 0.54 µM.

`C=CC(=O)N1CC[C@@H](n2nc(-c3ccc(Oc4ccccc4)cc3)c3c(N)ncnc32)C1` [Compound 11, 1-((R)-3-(4-amino-3-(4-phenoxyphenyl)-1H-pyrazolo[3,4-d]pyrimidin-1-yl)pyrrolidin-1-yl)prop-2-en-1-one] gave an IC50 [19, 24] of 0.0016 µM.

For `C=CC(=O)N1CC[C@H](n2nc(-c3ccc(Oc4ccccc4)cc3)c3c(N)ncnc32)C1` [Compound 12, 1-((S)-3-(4-amino-3-(4-phenoxyphenyl)-1H-pyrazolo[3,4-d]pyrimidin-1-yl)pyrrolidin-1-yl)prop-2-en-1-one], the IC50 [19, 24] was 0.0019 µM.

`CN(C)C/C=C/C(=O)N1CCC[C@@H](n2nc(-c3ccc(Oc4ccccc4)cc3)c3c(N)ncnc32)C1` [Compound 15, (E)-1-(3-(4-amino-3-(4-phenoxyphenyl)-1H-pyrazolo[3,4-d]pyrimidin-1-yl)piperidin-1-yl)-4-(dimethylamino)but-2-en-1-one] was tested, and the “growth of DHL-6 cells” value [23] was “inhibit growth”.
